Test results reported in article PMC10487316, “A high‐throughput microfluidic mechanoporation platform to enable intracellular delivery of cyclic peptides in cell‐based assays” (Bioengineering & Translational Medicine, 2023).
Where a SMILES comes first, the peptide text is derived from it. Bridges are numbered along the chain shown (N, C = ends). [ ]: non-standard residue; d: D form. Lys(N3) = [N-]=[N+]=NCCCC[C@H](N)C(=O)O; R8 = C=CCCCCCC[C@@](C)(N)C(=O)O; Cba = N[C@@H](CC1CCC1)C(=O)O; S5 = C=CCCC[C@](C)(N)C(=O)O; βAla = NCCC(=O)O

Biological target: T1, MDM2 (1–125) protein (Homo sapiens, UniProt Q00987)
T1 construct: made in house
T1 sequence (Q00987 1-125): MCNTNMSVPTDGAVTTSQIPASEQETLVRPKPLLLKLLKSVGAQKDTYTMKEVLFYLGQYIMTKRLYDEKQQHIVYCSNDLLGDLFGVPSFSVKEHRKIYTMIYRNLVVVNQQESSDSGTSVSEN
Assay: MDM2 binding assay (fluorescence anisotropy competition)
Conditions: competition vs 50 nM FAM-labeled 12/1 peptide, 250 nM MDM2; heat map of Figure 5a
Method: MDM2 protein generation and binding studies were performed as described.[17] […] The competing molecules were then titrated against the complex of the FAM‐labeled peptide and protein. Curve‐fitting was carried out using Prism 4.0 (GraphPad) to determine K D values. Readings were carried out with an Envision Multilabel Reader (PerkinElmer). […] All titrations were carried out in triplicate.

Row | Kd [nM] | Compound
1 | 88 | CC(=O)N[C@@H](CC(C)C)C(=O)N[C@H](C(=O)N[C@@H](Cc1ccccc1)C(=O)NC(C)(C)C(=O)N[C@@H](CCC(=O)O)C(=O)N[C@@H](Cc1ccc(O)cc1)C(=O)N[C@@H](Cc1c[nH]c2ccccc12)C(=O)N[C@@H](CCC(N)=O)C(=O)N[C@@H](CC(C)C)C(=O)N[C@@H](CC1CCC1)C(=O)NC(C)(C)C(=O)N[C@@H](CO)C(=O)N[C@@H](C)C(=O)N[C@@H](C)C(=O)O)[C@@H](C)O [MP-788, Ac-Leu-Thr-Phe-Aib-Glu-Tyr-Trp-Gln-Leu-Cba-Aib-Ser-Ala-Ala-OH]
2 | 0.53 | CC(C)C[C@H]1NC(=O)[C@@H](CCCCN)NC(=O)[C@@H](CCC(=O)O)NC(=O)[C@@H](Cc2ccc(C(F)(F)F)cc2)NC(=O)[C@@H](CC(N)=O)NC(=O)C2(CCCC=CCCCCCC[C@](C)(C(=O)N[C@H](C)C(=O)N[C@H](C)C(=O)N[C@H](C)C(=O)N[C@H](C)C(=O)N[C@H](C)C(=O)N[C@H](C)C(N)=O)NC(=O)[C@@H](CC(C)C)NC1=O)CCCC=CCCC[C@@](C)(N)C(=O)N[C@H](C)C(=O)N[C@H](Cc1c[nH]c3cc(F)ccc13)C(=O)N[C@H](Cc1ccc(O)cc1)C(=O)N2 (stereo partly drawn) [MP-231, H-R5*-DAla-DTrp(6-F)-DTyr-B5**-DAsn-DPhe(4-CF3)-DGlu-DLys-DLeu-DLeu-R8*-DAla-DAla-DAla-DAla-DAla-DAla-NH2]
3 | 17 | Ac-LTFEEYWAQLTS-NH2 [MP-190]
4 | 27 | CC(=O)N[C@H](CC(C)C)C(=O)N[C@H](C(=O)N[C@@H](Cc1ccccc1)C(=O)N[C@@H](CCC(=O)O)C(=O)N[C@@H](CCC(=O)O)C(=O)N[C@@H](Cc1ccc(O)cc1)C(=O)N[C@@H](Cc1c[nH]c2ccccc12)C(=O)N[C@@H](C)C(=O)N[C@@H](CCC(N)=O)C(=O)N[C@@H](CC(C)C)C(=O)N[C@H](C(=O)N[C@@H](CO)C(N)=O)[C@@H](C)O)[C@@H](C)O [MP-191] (Ac-[dL]TFEEYWAQLTS-NH2)
5 | 115 | CC(=O)N[C@@H](CC(C)C)C(=O)N[C@H](C(=O)N[C@@H](Cc1ccccc1)C(=O)N[C@@H](CCC(=O)O)C(=O)N[C@@H](CCC(=O)O)C(=O)N[C@@H](Cc1ccc(O)cc1)C(=O)N[C@@H](Cc1c[nH]c2ccccc12)C(=O)N[C@@H](C)C(=O)N[C@H](CCC(N)=O)C(=O)N[C@@H](CC(C)C)C(=O)N[C@H](C(=O)N[C@@H](CO)C(N)=O)[C@@H](C)O)[C@@H](C)O [MP-793] (Ac-LTFEEYWA[dQ]LTS-NH2)
6 | 15 | CC(=O)N[C@H](C(=O)N[C@@H](CO)C(=O)N[C@@](C)(Cc1ccccc1)C(=O)N[C@]1(C)CCCCCCC=CCCC[C@@](C)(C(N)=O)NC(=O)[C@H](CC(C)C)NC(=O)[C@H](CC(C)C)NC(=O)[C@H](C)NC(=O)[C@H](Cc2c[nH]c3ccccc23)NC(=O)[C@H](Cc2ccc(O)cc2)NC(=O)[C@H](CCC(=O)O)NC1=O)[C@@H](C)O [MP-159, Ac-Thr-Ser-(ɑ-Me-Phe)-R8*-Glu-Tyr-Trp-Ala-Leu-Leu-S5*-NH2]
7 | 17 | CC(C)C[C@@H]1NC(=O)[C@H](C)NC(=O)[C@H](Cc2c[nH]c3ccccc23)NC(=O)[C@H](Cc2ccc(O)cc2)NC(=O)[C@H](CCC(=O)O)NC(=O)[C@](C)(NC(=O)[C@H](Cc2ccccc2)NC(=O)[C@H](CO)NC(=O)[C@@H](NC(=O)[C@H](CO)NC(=O)CNC(=O)[C@H](CO)NC(=O)[C@H](CCCCN=[N+]=[N-])NC(=O)[C@H](CCC(=O)O)NC(=O)[C@@H](N)CCC(=O)O)[C@@H](C)O)CCCCCCC=CCCC[C@@](C)(C(N)=O)NC(=O)[C@H](CC(C)C)NC1=O [MP-181, H-Glu-Glu-Lys(N3)-Ser-Gly-Ser-Thr-Ser-Phe-R8*-Glu-Tyr-Trp-Ala-Leu-Leu-S5*-NH2] (H-EE[Lys(N3)]SGSTSF[R8]EYWALL[S5]-NH2; staple 10-17)
8 | 0.97 | CC(=O)N[C@@H](CCCCN=[N+]=[N-])C(=O)NCCC(=O)N[C@@H](CC(C)C)C(=O)N[C@H](C(=O)N[C@@H](Cc1ccccc1)C(=O)N[C@]1(C)CCCCCCC=CCCC[C@@](C)(C(=O)N[C@@H](CCC(=O)O)C(=O)N[C@@H](C)C(=O)N[C@@H](C)C(=O)N[C@@H](C)C(=O)N[C@@H](C)C(=O)N[C@H](C)C(N)=O)NC(=O)[C@H](CC2CCC2)NC(=O)[C@H](CCC(N)=O)NC(=O)[C@H](C)NC(=O)[C@H](Cc2c[nH]c3ccccc23)NC(=O)[C@H](Cc2ccc(O)cc2)NC(=O)[C@H](CCC(=O)O)NC1=O)[C@@H](C)O [MP-834, Ac-Lys(N3)-betaAla-Leu-Thr-Phe-R8*-Glu-Tyr-Trp-Ala-Gln-Cba-S5*-Glu-Ala-Ala-Ala-Ala-DAla-NH2] (Ac-[Lys(N3)][βAla]LTF[R8]EYWAQ[Cba][S5]EAAAA[dA]-NH2; staple 6-13)
9 | 0.85 | CC(C)C[C@@H]1NC(=O)[C@H](C)NC(=O)[C@H](Cc2c[nH]c3ccccc23)NC(=O)[C@H](Cc2ccc(O)cc2)NC(=O)[C@H](CCC(=O)O)NC(=O)[C@](C)(NC(=O)[C@H](Cc2ccccc2)NC(=O)[C@H](CO)NC(=O)[C@@H](NC(=O)[C@H](CO)NC(=O)CNC(=O)[C@H](CO)NC(=O)[C@H](CCCCN=[N+]=[N-])NC(=O)[C@H](CCC(=O)O)NC(=O)[C@H](CCC(=O)O)NC(=O)[C@@H](N)CCC(=O)O)[C@@H](C)O)CCCCCCC=CCCC[C@@](C)(C(N)=O)NC(=O)[C@H](CC(C)C)NC1=O [MP-948, NH2-Glu-Glu-Glu-Lys(N3)-Ser-Gly-Ser-Thr-Ser-Phe-R8*-Glu-Tyr-Trp-Ala-Leu-Leu-S5*-NH2] (H-EEE[Lys(N3)]SGSTSF[R8]EYWALL[S5]-NH2; staple 11-18)
